Laboratory results taken from patent US4698327A, “Novel glycopeptide derivatives” (priority 1986, dated 1987).
≈ marks a conversion by molar mass, not a printed value.

Columns and labels:
[1] = test system: Staphylococcus aureus S13E; assay type: cell-based; details: agar dilution
[2] = test system: Staphylococcus aureus X400; assay: MIC, standard agar-dilution assay; assay type: cell-based
[3] = test system: Staphylococcus epidermidis EPI1; assay type: cell-based; details: agar dilution
Escherichia coli EC14 = assay: MIC, standard agar-dilution assay; assay type: cell-based
Streptococcus pneumoniae = Streptococcus pneumoniae infection in mice; two doses, administered subcutaneously
[4] = test system: Staphylococcus aureus V41; assay: MIC, standard agar-dilution assay; assay type: cell-based
[5] = test system: Klebsiella pneumoniae X26; assay: MIC, standard agar-dilution assay; assay type: cell-based
[6] = test system: Streptococcus pneumoniae Park 1; assay type: cell-based; details: agar dilution
[7] = test system: Staphylococcus aureus NRRL B313; details: agar dilution
[8] = test system: Haemophilus influenzae 76; assay: MIC, standard agar-dilution assay; assay type: cell-based
[9] = test system: Streptococcus sp. group D 2041; assay: MIC, standard agar-dilution assay; assay type: cell-based
Staphylococcus aureus = Staphylococcus aureus infection in mice; two doses, administered subcutaneously
[10] = test system: Streptococcus faecium ATCC 9790; assay: MIC, standard agar-dilution assay; assay type: cell-based
Escherichia coli N10 = assay: MIC, standard agar-dilution assay; assay type: cell-based
Streptococcus pyogenes = Streptococcus pyogenes infection in mice; two doses, administered subcutaneously
[11] = test system: Klebsiella pneumoniae KAE; assay: MIC, standard agar-dilution assay; assay type: cell-based
[12] = test system: Haemophilus influenzae C.L.; assay: MIC, standard agar-dilution assay; assay type: cell-based
[13] = test system: Streptococcus pyogenes C203; assay: MIC, standard agar-dilution assay; assay type: cell-based
[14] = test system: Klebsiella pneumoniae X68; assay: MIC, standard agar-dilution assay; assay type: cell-based
Escherichia coli TEM = assay: MIC, standard agar-dilution assay; assay type: cell-based
[15] = test system: Staphylococcus epidermidis 222; assay: MIC, standard agar-dilution assay; assay type: cell-based

Structure (SMILES)	MIC [1] [µg/mL]	MIC [2] [µg/mL]	MIC [3] [µg/mL]	MIC (Escherichia coli EC14) [µg/mL]	ED50 (Streptococcus pneumoniae) [mg/kg/2]	MIC [4] [µg/mL]	MIC [5] [µg/mL]	MIC [6] [µg/mL]	MIC [7] [µg/mL]	MIC [8] [µg/mL]	MIC [9] [µg/mL]	ED50 (Staphylococcus aureus) [mg/kg/2]	MIC [10] [µg/mL]	MIC (Escherichia coli N10) [µg/mL]	ED50 (Streptococcus pyogenes) [mg/kg/2]	MIC [11] [µg/mL]	MIC [12] [µg/mL]	MIC [13] [µg/mL]	MIC [14] [µg/mL]	MIC (Escherichia coli TEM) [µg/mL]	other results
CCCCCCCCCCCCNC1(C)CC(OC2C(Oc3c4cc5cc3Oc3ccc(cc3Cl)C(O)C3NC(=O)C(NC(=O)C5NC(=O)C(CC(N)=O)NC(=O)C(NC(=O)C(CC(C)C)NC)C(O)c5ccc(c(Cl)c5)O4)c4ccc(O)c(c4)-c4c(O)cc(O)cc4C(C(=O)O)NC3=O)OC(CO)C(O)C2O)OC(C)C1O (stereo not drawn) [Compound 1, N^van --(n-dodecyl)vancomycin]	0.25 (≈ 0.155 µM)	0.25 (≈ 0.155 µM)	0.5 (≈ 0.309 µM)	> 128	0.42	0.25 (≈ 0.155 µM)	> 128	0.25 (≈ 0.155 µM)	0.25 (≈ 0.155 µM)	> 128	0.125 (≈ 0.0773 µM)	> 5	0.25 (≈ 0.155 µM)	> 128	0.31	> 128	> 128	0.125 (≈ 0.0773 µM)	> 128	> 128	
CCCCCCCCOc1ccc(CNC2(C)CC(OC3C(Oc4c5cc6cc4Oc4ccc(cc4Cl)C(O)C4NC(=O)C(NC(=O)C6NC(=O)C(CC(N)=O)NC(=O)C(NC(=O)C(CC(C)C)NC)C(O)c6ccc(c(Cl)c6)O5)c5ccc(O)c(c5)-c5c(O)cc(O)cc5C(C(=O)O)NC4=O)OC(CO)C(O)C3O)OC(C)C2O)cc1 (stereo not drawn) [Example 94, N^van --( -p-octyloxybenzyl)vancomycin]	0.5 (≈ 0.3 µM)	0.5 (≈ 0.3 µM)	1 (≈ 0.6 µM)	> 128	0.2	0.5 (≈ 0.3 µM)	> 128	0.25 (≈ 0.15 µM)	0.25 (≈ 0.15 µM)	> 128	0.25 (≈ 0.15 µM)	> 0.12	0.25 (≈ 0.15 µM)	> 128	0.66	> 128	> 128	0.25 (≈ 0.15 µM)	> 128	> 128	MIC [15]: 0.5 µg/mL (≈ 0.3 µM)
CCCCCCCCCCN(C)C(CC(C)C)C(=O)NC1C(=O)NC(CC(N)=O)C(=O)NC2C(=O)NC3C(=O)NC(C(=O)NC(C(=O)O)c4cc(O)cc(O)c4-c4cc3ccc4O)C(O)c3ccc(c(Cl)c3)Oc3cc2cc(c3OC2OC(CO)C(O)C(O)C2OC2CC(C)(N)C(O)C(C)O2)Oc2ccc(cc2Cl)C1O (stereo not drawn) [Compound 3, N^leu --(n-decyl)vancomycin]	0.5 (≈ 0.315 µM)	0.5 (≈ 0.315 µM)	2 (≈ 1.26 µM)	> 128	3.6	0.5 (≈ 0.315 µM)	> 128	0.5 (≈ 0.315 µM)	0.5 (≈ 0.315 µM)	> 128	1 (≈ 0.629 µM)	> 5	0.5 (≈ 0.315 µM)	> 128	4.6	> 128	128 (≈ 80.5 µM)	0.5 (≈ 0.315 µM)	> 128	> 128	MIC [15]: 1 µg/mL (≈ 0.629 µM)
CCCCCCCCN(C)C(CC(C)C)C(=O)NC1C(=O)NC(CC(N)=O)C(=O)NC2C(=O)NC3C(=O)NC(C(=O)NC(C(=O)O)c4cc(O)cc(O)c4-c4cc3ccc4O)C(O)c3ccc(c(Cl)c3)Oc3cc2cc(c3OC2OC(CO)C(O)C(O)C2OC2CC(C)(N)C(O)C(C)O2)Oc2ccc(cc2Cl)C1O (stereo not drawn) [Compound 8, N^leu --(n-octyl)vancomycin]	1 (≈ 0.64 µM)	1 (≈ 0.64 µM)	2 (≈ 1.28 µM)	> 128	3.1	0.5 (≈ 0.32 µM)	> 128	1 (≈ 0.64 µM)	0.5 (≈ 0.32 µM)	128 (≈ 82 µM)	2 (≈ 1.28 µM)	> 5	1 (≈ 0.64 µM)	> 128	3.7	> 128	128 (≈ 82 µM)	0.5 (≈ 0.32 µM)	> 128	> 128	MIC [15]: 1 µg/mL (≈ 0.64 µM)
CCCCCCCCCNC1(C)CC(OC2C(Oc3c4cc5cc3Oc3ccc(cc3Cl)C(O)C3NC(=O)C(NC(=O)C5NC(=O)C(CC(N)=O)NC(=O)C(NC(=O)C(CC(C)C)NC)C(O)c5ccc(c(Cl)c5)O4)c4ccc(O)c(c4)-c4c(O)cc(O)cc4C(C(=O)O)NC3=O)OC(CO)C(O)C2O)OC(C)C1O (stereo not drawn) [Compound 5, N^van --(n-nonyl)vancomycin]	0.25 (≈ 0.159 µM)	0.25 (≈ 0.159 µM)	0.5 (≈ 0.317 µM)	> 128	0.81	0.25 (≈ 0.159 µM)	> 128	0.25 (≈ 0.159 µM)	0.25 (≈ 0.159 µM)	64 (≈ 40.6 µM)	0.5 (≈ 0.317 µM)	2.9	0.25 (≈ 0.159 µM)	> 128	0.56	> 128	64 (≈ 40.6 µM)	0.125 (≈ 0.0793 µM)	> 128	> 128	MIC [15]: 0.25 µg/mL (≈ 0.159 µM)
CCCCCCCCNC1(C)CC(OC2C(Oc3c4cc5cc3Oc3ccc(cc3Cl)C(O)C3NC(=O)C(NC(=O)C5NC(=O)C(CC(N)=O)NC(=O)C(NC(=O)C(CC(C)C)NC)C(O)c5ccc(c(Cl)c5)O4)c4ccc(O)c(c4)-c4c(O)cc(O)cc4C(C(=O)O)NC3=O)OC(CO)C(O)C2O)OC(C)C1O (stereo not drawn) [Compound 7, N^van --(n-octyl)vancomycin]	0.25 (≈ 0.16 µM)	0.25 (≈ 0.16 µM)	1 (≈ 0.64 µM)	> 128	0.44	0.25 (≈ 0.16 µM)	> 128		0.25 (≈ 0.16 µM)	32 (≈ 20.5 µM)	0.5 (≈ 0.32 µM)	3.4	0.25 (≈ 0.16 µM)	> 128	0.98	> 128	32 (≈ 20.5 µM)	0.125 (≈ 0.0801 µM)	> 128	> 128	MIC [15]: 0.5 µg/mL (≈ 0.32 µM)
CCCNC1(C)CC(OC2C(Oc3c4cc5cc3Oc3ccc(cc3Cl)C(O)C(NC(=O)C(CC(C)C)N(C)CCC)C(=O)NC(CC(N)=O)C(=O)NC5C(=O)NC3C(=O)NC(C(=O)NC(C(=O)O)c5cc(O)cc(O)c5-c5cc3ccc5O)C(O)c3ccc(c(Cl)c3)O4)OC(CO)C(O)C2O)OC(C)C1O (stereo not drawn) [Compound 22, N^van, N^leu --di(n-propyl)vancomycin]	2 (≈ 1.3 µM)	2 (≈ 1.3 µM)	4 (≈ 2.61 µM)	> 128		2 (≈ 1.3 µM)	> 128	1 (≈ 0.652 µM)	2 (≈ 1.3 µM)	128 (≈ 83.5 µM)	8 (≈ 5.22 µM)		2 (≈ 1.3 µM)	> 128		> 128	> 128	2 (≈ 1.3 µM)	> 128	> 128	MIC [15]: 4 µg/mL (≈ 2.61 µM)
CCCCCCCCCCNC1(C)CC(OC2C(Oc3c4cc5cc3Oc3ccc(cc3Cl)C(O)C3NC(=O)C(NC(=O)C5NC(=O)C(CC(N)=O)NC(=O)C(NC(=O)C(CC(C)C)NC)C(O)c5ccc(c(Cl)c5)O4)c4ccc(O)c(c4)-c4c(O)cc(O)cc4C(C(=O)O)NC3=O)OC(CO)C(O)C2O)OC(C)C1O (stereo not drawn) [Compound 2, N^van -(n-decyl)vancomycin]	0.25 (≈ 0.157 µM)	0.25 (≈ 0.157 µM)	0.25 (≈ 0.157 µM)	> 128	0.51	0.25 (≈ 0.157 µM)	> 128	0.125 (≈ 0.0786 µM)		128 (≈ 80.5 µM)	0.25 (≈ 0.157 µM)	1.8	0.25 (≈ 0.157 µM)	> 128	1.6	> 128	128 (≈ 80.5 µM)	0.06 (≈ 0.0377 µM)	> 128	> 128	MIC [15]: 0.25 µg/mL (≈ 0.157 µM)
